Assay results taken from patent US20040122209A1, “Products for regulating the degradation of collagen and methods for identifying same” (Shriners Hospital For Children, priority 2002, published 2004).

Tested on: adult human articular cartilage
Experiment: RT-PCR of hypertrophy and degradation genes in human articular cartilage explant culture
Type: cell-based
Method: Total RNA was isolated from chondrocytes or cartilage explants by the guanidine isothiocyanate procedure according to Chomczynski and Sacchi (Chomczynski, P. et al., Anal. Biochem. 162:156-9 (1987)) with some modifications. Briefly, chondrocytes (1-2×10^6 cells) or cartilage tissue (200-300 mg) were solubilized in solution D (4 M guanidine isothiocyanate, 20 mM sodium acetate/pH 5.2, 0.1 M 2-mercaptoethanol and 0.5% N-lauroylsarcosine). One volume of isopropanol was added to the mixture and all proteins and nucleic acids were precipitated at −20° C. overnight. […] The total RNA pellet was resuspended in diethyl pyrocarbonate-treated (DEPC) water and the amount of total RNA was measured by reading optical density at 260 nm. […]
One microliter of reverse transcribed total RNA was incubated with 2.5 U of AmpliTaq™ DNA polymerase (Perkin Elmer, Branchburg, N.J.) in 50 mM KCl, 1.5 mM MgCl2, 10 mM Tris-HCl, pH 8.3, 200 μM dNTP mix and 0.5 μmol each of oligonucleotide primers in 50 μl reaction mixture. […] The digital images of the gel were analyzed using NIH 1.60 imaging software to evaluate the pixel intensity of the band of the PCR products. […] The band intensities were determined to be below saturation. […]
MMP-13 expression was maximal by 12 days. Gene expression was determined by RT-PCR analyses of mRNA in the manner used to detect expression of MMPs and cytokines described elsewhere. […]

ERGPPGPQGARGFPGTPGLPGVK [CB12-II]
time at which MMP-13 expression was maximal: ≤ 12 days | expression of genes characteristic of chondrocyte hypertrophy (COLX, MMP-9, TGF-B1, IHH, MMP-13, CBFA1, SOX 9, bFGF, pTHrP, caspase-3, MT1-MMP, IL-1B, MMP-1) (induction within a 24-48 hr period): rapid induction
